In the kinase profiling compilation of Christmann-Franck et al. (2016):

Columns and labels:
Assay in all cases: KINOMEscan competition binding
ABL2 (human) = ABL2 (human) (UniProt P42684); conditions: compound 10.0 µM
ACVR1B (human) = ACVR1B (human) (UniProt P36896); conditions: compound 10.0 µM
ADCK3 (human) = ADCK3 (human) (UniProt Q8NI60); conditions: compound 10.0 µM
ALK (human) = ALK (human) (UniProt Q9UM73); conditions: compound 10.0 µM
CAMK2G (human) = CAMK2G (human) (UniProt Q13555); conditions: compound 10.0 µM
CHEK2 (human) = CHEK2 (human) (UniProt O96017); conditions: compound 10.0 µM
CIT (human) = CIT (human) (UniProt O14578); conditions: compound 10.0 µM
CSF1R (human) = CSF1R (human) (UniProt P07333); conditions: compound 10.0 µM
CSNK1D (human) = CSNK1D (human) (UniProt P48730); conditions: compound 10.0 µM
DCLK3 (human) = DCLK3 (human) (UniProt Q9C098); conditions: compound 10.0 µM
DSTYK (human) = DSTYK (human) (UniProt Q6XUX3); conditions: compound 10.0 µM
[1] = system: EGFR (human), P00533 [752-759 del]; conditions: compound 10.0 µM
[2] = system: EGFR (human), P00533 [A750P; 747-749 del]; conditions: compound 10.0 µM
EPHA2 (human) = EPHA2 (human) (UniProt P29317); conditions: compound 10.0 µM
FGFR3 (human) = FGFR3 (human) (UniProt P22607); conditions: compound 10.0 µM
KDR (human) = KDR (human) (UniProt P35968); conditions: compound 10.0 µM
[3] = system: KIT (human), P10721 [D816H]; conditions: compound 10.0 µM
[4] = system: KIT (human), P10721 [D816V]; conditions: compound 10.0 µM
MAP3K6 (human) = MAP3K6 (human) (UniProt O95382); conditions: compound 10.0 µM
MINK1 (human) = MINK1 (human) (UniProt Q8N4C8); conditions: compound 10.0 µM
MKNK1 (human) = MKNK1 (human) (UniProt Q9BUB5); conditions: compound 10.0 µM
MLTK (human) = MLTK (human) (UniProt Q9NYL2); conditions: compound 10.0 µM
NEK1 (human) = NEK1 (human) (UniProt Q96PY6); conditions: compound 10.0 µM
NTRK1 (human) = NTRK1 (human) (UniProt P04629); conditions: compound 10.0 µM
NTRK3 (human) = NTRK3 (human) (UniProt Q16288); conditions: compound 10.0 µM
PAK6 (human) = PAK6 (human) (UniProt Q9NQU5); conditions: compound 10.0 µM
[5] = system: PIK3CA (human), P42336 [E545A]; conditions: compound 10.0 µM
[6] = system: PIK3CA (human), P42336 [H1047Y]; conditions: compound 10.0 µM
[7] = system: PIK3CA (human), P42336 [Q546K]; conditions: compound 10.0 µM
PIK3CB (human) = PIK3CB (human) (UniProt P42338); conditions: compound 10.0 µM
PIM1 (human) = PIM1 (human) (UniProt P11309); conditions: compound 10.0 µM
PKN3 (M.tuberculosis) = PKN3 (M.tuberculosis) (UniProt Q6P5Z2); conditions: compound 10.0 µM
PLK1 (human) = PLK1 (human) (UniProt P53350)
PLK4 (human) = PLK4 (human) (UniProt O00444)
PRKD1 (human) = PRKD1 (human) (UniProt Q15139); conditions: compound 10.0 µM
RPS6KA1 KD1 (human) = RPS6KA1 KD1 (human) (UniProt Q15418); conditions: compound 10.0 µM
RPS6KA6 KD1 (human) = RPS6KA6 KD1 (human) (UniProt Q9UK32); conditions: compound 10.0 µM
TAOK1 (human) = TAOK1 (human) (UniProt Q7L7X3); conditions: compound 10.0 µM
WEE2 (human) = WEE2 (human) (UniProt P0C1S8); conditions: compound 10.0 µM
YSK4 (human) = YSK4 (human) (UniProt Q56UN5); conditions: compound 10.0 µM

Sequence of PLK4 (human) (O00444 whole entry, looked up): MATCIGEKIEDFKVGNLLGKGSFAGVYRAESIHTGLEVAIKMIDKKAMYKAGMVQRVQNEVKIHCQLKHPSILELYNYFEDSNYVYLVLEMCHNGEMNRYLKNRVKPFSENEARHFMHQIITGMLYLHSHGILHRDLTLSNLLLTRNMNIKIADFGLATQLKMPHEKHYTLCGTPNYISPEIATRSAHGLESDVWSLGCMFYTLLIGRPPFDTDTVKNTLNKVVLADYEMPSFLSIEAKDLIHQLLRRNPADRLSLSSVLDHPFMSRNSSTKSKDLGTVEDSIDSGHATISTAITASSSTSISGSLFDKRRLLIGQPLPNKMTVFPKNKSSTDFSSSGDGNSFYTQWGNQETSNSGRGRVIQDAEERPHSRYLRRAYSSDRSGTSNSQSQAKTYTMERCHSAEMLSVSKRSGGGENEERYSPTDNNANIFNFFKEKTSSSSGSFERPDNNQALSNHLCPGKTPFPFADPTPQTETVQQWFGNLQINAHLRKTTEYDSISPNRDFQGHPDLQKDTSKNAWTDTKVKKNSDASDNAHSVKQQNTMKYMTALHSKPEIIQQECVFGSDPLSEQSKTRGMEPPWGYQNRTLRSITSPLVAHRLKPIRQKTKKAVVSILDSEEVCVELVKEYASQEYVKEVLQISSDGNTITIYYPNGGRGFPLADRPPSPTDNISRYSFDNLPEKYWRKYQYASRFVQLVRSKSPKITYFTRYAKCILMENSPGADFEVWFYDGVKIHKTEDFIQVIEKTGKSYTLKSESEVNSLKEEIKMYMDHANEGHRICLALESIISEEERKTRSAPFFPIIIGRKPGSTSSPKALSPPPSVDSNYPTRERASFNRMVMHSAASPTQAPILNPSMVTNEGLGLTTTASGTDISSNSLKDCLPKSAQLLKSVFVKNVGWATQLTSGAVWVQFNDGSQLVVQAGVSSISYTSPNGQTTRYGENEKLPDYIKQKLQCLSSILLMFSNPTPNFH
Sequence of PLK1 (human) (P53350 whole entry, looked up): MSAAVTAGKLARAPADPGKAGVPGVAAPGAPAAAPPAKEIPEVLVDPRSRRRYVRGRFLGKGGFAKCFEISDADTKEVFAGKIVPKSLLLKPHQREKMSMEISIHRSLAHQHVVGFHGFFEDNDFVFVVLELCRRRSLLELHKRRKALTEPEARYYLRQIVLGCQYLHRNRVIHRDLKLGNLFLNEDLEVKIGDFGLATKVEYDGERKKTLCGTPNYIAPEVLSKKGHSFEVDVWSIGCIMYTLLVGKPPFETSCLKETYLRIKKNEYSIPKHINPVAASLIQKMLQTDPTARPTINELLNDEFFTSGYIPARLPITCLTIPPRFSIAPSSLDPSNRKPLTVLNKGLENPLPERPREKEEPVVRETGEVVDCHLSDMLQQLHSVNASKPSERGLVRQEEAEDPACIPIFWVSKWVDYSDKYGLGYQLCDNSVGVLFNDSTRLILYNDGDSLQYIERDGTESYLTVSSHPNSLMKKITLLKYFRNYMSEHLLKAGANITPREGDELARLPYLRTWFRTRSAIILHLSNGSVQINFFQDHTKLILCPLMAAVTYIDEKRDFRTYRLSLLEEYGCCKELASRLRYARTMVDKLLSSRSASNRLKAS
Sequence of CSF1R (human) (P07333 whole entry, looked up): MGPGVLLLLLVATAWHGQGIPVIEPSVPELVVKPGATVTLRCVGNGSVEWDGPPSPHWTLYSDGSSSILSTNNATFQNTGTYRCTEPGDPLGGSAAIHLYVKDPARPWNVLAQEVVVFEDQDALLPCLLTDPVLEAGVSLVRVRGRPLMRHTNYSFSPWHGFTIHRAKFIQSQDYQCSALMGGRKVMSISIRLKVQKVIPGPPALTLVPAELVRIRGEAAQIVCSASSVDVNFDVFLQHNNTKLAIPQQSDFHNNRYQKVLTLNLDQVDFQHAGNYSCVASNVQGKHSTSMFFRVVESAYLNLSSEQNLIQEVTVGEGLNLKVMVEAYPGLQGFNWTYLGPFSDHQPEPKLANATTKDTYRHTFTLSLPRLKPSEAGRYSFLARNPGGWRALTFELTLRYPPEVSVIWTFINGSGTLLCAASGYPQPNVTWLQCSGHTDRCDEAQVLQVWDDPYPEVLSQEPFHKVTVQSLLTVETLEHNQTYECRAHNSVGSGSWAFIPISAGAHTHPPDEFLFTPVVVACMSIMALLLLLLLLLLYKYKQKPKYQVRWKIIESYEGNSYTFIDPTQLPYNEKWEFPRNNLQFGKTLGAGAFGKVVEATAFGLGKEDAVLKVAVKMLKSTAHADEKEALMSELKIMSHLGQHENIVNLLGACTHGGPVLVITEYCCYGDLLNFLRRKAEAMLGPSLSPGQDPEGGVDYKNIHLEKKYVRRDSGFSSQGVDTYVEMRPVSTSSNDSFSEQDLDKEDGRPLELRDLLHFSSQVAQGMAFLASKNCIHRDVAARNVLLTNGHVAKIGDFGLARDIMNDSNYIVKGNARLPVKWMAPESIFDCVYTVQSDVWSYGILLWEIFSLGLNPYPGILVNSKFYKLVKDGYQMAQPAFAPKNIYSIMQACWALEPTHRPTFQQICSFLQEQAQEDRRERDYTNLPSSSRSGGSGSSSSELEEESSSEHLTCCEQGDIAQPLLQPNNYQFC
Sequence of CAMK2G (human) (Q13555 whole entry, looked up): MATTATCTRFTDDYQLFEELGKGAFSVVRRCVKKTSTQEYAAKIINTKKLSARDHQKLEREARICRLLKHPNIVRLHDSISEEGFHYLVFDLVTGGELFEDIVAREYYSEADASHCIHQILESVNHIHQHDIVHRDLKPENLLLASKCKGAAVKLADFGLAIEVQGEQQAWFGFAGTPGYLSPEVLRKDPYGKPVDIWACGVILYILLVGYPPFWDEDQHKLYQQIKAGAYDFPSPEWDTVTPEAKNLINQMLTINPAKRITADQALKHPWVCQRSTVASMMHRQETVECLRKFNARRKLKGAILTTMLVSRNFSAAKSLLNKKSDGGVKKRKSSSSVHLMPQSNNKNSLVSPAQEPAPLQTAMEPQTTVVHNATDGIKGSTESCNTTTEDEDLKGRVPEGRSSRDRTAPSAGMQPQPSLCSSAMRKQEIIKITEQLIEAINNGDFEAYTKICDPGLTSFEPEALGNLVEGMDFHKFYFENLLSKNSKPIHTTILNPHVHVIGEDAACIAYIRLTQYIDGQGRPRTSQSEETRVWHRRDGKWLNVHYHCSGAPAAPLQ
Sequence of RPS6KA6 KD1 (human) (Q9UK32 whole entry, looked up): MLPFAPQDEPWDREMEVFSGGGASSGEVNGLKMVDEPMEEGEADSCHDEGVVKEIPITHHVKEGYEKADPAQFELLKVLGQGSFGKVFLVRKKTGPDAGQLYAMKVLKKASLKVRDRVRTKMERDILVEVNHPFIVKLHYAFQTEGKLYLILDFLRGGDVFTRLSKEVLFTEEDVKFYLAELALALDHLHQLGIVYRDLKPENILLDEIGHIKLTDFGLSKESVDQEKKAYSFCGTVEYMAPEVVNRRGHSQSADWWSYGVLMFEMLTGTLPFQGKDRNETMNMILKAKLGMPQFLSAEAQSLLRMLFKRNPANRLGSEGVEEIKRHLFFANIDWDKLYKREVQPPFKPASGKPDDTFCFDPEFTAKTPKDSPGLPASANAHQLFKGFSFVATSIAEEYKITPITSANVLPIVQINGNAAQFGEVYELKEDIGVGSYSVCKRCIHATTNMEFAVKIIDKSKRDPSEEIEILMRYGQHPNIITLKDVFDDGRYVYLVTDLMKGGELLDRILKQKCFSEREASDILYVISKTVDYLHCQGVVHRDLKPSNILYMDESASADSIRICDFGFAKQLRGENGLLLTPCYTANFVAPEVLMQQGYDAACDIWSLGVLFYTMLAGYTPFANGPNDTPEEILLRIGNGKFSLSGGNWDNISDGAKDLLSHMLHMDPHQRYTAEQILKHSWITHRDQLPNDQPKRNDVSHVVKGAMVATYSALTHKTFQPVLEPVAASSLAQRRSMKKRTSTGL
Sequence of KIT (human), P10721 [D816H] (P10721 whole entry D816H, looked up): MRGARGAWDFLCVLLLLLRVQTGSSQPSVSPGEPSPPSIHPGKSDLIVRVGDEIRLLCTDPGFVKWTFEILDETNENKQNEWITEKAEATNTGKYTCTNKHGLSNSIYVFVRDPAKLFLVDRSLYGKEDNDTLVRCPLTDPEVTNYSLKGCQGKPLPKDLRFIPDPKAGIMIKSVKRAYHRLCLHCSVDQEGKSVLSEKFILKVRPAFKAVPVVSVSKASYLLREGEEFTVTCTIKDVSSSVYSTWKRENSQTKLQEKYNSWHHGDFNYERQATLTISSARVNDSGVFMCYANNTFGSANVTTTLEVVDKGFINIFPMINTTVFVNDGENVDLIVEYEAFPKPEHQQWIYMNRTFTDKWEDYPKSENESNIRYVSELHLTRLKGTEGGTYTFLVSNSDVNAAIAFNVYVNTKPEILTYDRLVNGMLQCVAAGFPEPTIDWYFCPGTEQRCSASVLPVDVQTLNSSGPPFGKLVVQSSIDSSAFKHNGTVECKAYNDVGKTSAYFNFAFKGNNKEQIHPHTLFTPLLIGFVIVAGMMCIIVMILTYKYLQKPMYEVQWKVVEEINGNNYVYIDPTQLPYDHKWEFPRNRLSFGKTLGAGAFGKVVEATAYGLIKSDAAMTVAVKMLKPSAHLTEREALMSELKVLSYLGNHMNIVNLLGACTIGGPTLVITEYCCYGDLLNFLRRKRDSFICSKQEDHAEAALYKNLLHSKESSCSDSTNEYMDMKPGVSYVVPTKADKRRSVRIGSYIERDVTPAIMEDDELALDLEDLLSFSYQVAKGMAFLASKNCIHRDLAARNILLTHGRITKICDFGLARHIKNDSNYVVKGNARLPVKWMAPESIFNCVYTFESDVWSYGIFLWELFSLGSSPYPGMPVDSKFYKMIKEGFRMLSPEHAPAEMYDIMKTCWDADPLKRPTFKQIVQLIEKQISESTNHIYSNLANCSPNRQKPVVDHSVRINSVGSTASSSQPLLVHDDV
Sequence of KIT (human), P10721 [D816V] (P10721 whole entry D816V, looked up): as the sequence (P10721 whole entry D816H, looked up) above, with H816V counted along it

Q: With COc1cc(C(=O)N2CCC(N3CCN(C)CC3)CC2)ccc1Nc1ncc2c(n1)N(C)c1ccccc1C(=O)N2C as the molecule, how does the kinase still bound, per cent of control (ABL2 (human)) read?
A: The kinase still bound, per cent of control was 97%.

Q: And the kinase still bound, per cent of control (ACVR1B (human))?
A: The kinase still bound, per cent of control was 100%.

Q: What about the kinase still bound, per cent of control (ADCK3 (human)) of the same molecule?
A: The kinase still bound, per cent of control was 71%.

Q: What about the kinase still bound, per cent of control (ALK (human)) of the same molecule?
A: The kinase still bound, per cent of control was 13%.

Q: And the kinase still bound, per cent of control (CAMK2G (human))?
A: The kinase still bound, per cent of control was 47%.

Q: What about the kinase still bound, per cent of control (CHEK2 (human)) of the same molecule?
A: The kinase still bound, per cent of control was 66%.

Q: And the kinase still bound, per cent of control (CIT (human))?
A: The kinase still bound, per cent of control was 99%.

Q: What about the kinase still bound, per cent of control (CSF1R (human)) of the same molecule?
A: The kinase still bound, per cent of control was 98%.

Q: And the residual activity (CSNK1D (human))?
A: Its residual activity is 81%.

Q: What about the kinase still bound, per cent of control (DCLK3 (human)) of the same molecule?
A: The kinase still bound, per cent of control was 90%.

Q: What about the kinase still bound, per cent of control (DSTYK (human)) of the same molecule?
A: Its kinase still bound, per cent of control is 16%.

Q: What about the kinase still bound, per cent of control [1] of the same molecule?
A: The kinase still bound, per cent of control was 99%.

Q: What about the kinase still bound, per cent of control [2] of the same molecule?
A: The kinase still bound, per cent of control was 78%.

Q: What about the kinase still bound, per cent of control (EPHA2 (human)) of the same molecule?
A: The kinase still bound, per cent of control was 92%.

Q: And the kinase still bound, per cent of control (FGFR3 (human))?
A: The kinase still bound, per cent of control was 80%.

Q: What about the kinase still bound, per cent of control (KDR (human)) of the same molecule?
A: Its kinase still bound, per cent of control is 84%.

Q: What about the kinase still bound, per cent of control [3] of the same molecule?
A: Its kinase still bound, per cent of control is 100%.

Q: And the kinase still bound, per cent of control [4]?
A: Its kinase still bound, per cent of control is 72%.

Q: What about the kinase still bound, per cent of control (MAP3K6 (human)) of the same molecule?
A: Its kinase still bound, per cent of control is 100%.

Q: What about the kinase still bound, per cent of control (MINK1 (human)) of the same molecule?
A: Its kinase still bound, per cent of control is 77%.

Q: And the kinase still bound, per cent of control (MKNK1 (human))?
A: Its kinase still bound, per cent of control is 50%.

Q: What about the kinase still bound, per cent of control (MLTK (human)) of the same molecule?
A: The kinase still bound, per cent of control was 99%.

Q: And the kinase still bound, per cent of control (NEK1 (human))?
A: The kinase still bound, per cent of control was 83%.

Q: What about the kinase still bound, per cent of control (NTRK1 (human)) of the same molecule?
A: The kinase still bound, per cent of control was 69%.

Q: What about the kinase still bound, per cent of control (NTRK3 (human)) of the same molecule?
A: Its kinase still bound, per cent of control is 100%.

Q: What about the kinase still bound, per cent of control (PAK6 (human)) of the same molecule?
A: Its kinase still bound, per cent of control is 98%.

Q: And the kinase still bound, per cent of control [5]?
A: The kinase still bound, per cent of control was 98%.

Q: And the kinase still bound, per cent of control [6]?
A: The kinase still bound, per cent of control was 71%.

Q: And the kinase still bound, per cent of control [7]?
A: The kinase still bound, per cent of control was 91%.

Q: And the kinase still bound, per cent of control (PIK3CB (human))?
A: Its kinase still bound, per cent of control is 96%.

Q: What about the kinase still bound, per cent of control (PIM1 (human)) of the same molecule?
A: Its kinase still bound, per cent of control is 100%.

Q: What about the kinase still bound, per cent of control (PKN3 (M.tuberculosis)) of the same molecule?
A: The kinase still bound, per cent of control was 100%.

Q: And the Kd (PLK1 (human))?
A: Its Kd is 75 nM.

Q: What about the kinase still bound, per cent of control (PLK1 (human); compound 10.0 µM) of the same molecule?
A: Its kinase still bound, per cent of control is 0.7%.

Q: And the Kd (PLK4 (human))?
A: The Kd was 16 nM.

Q: What about the kinase still bound, per cent of control (PLK4 (human); compound 10.0 µM) of the same molecule?
A: Its kinase still bound, per cent of control is 0%.

Q: And the kinase still bound, per cent of control (PRKD1 (human))?
A: Its kinase still bound, per cent of control is 28%.

Q: What about the kinase still bound, per cent of control (RPS6KA1 KD1 (human)) of the same molecule?
A: Its kinase still bound, per cent of control is 73%.

Q: What about the kinase still bound, per cent of control (RPS6KA6 KD1 (human)) of the same molecule?
A: Its kinase still bound, per cent of control is 92%.

Q: And the kinase still bound, per cent of control (TAOK1 (human))?
A: Its kinase still bound, per cent of control is 28%.

Q: What about the kinase still bound, per cent of control (WEE2 (human)) of the same molecule?
A: The kinase still bound, per cent of control was 100%.

Q: And the kinase still bound, per cent of control (YSK4 (human))?
A: Its kinase still bound, per cent of control is 99%.
